Assay results: US8361998B2, “Compounds and their use as IKACh blockers” (AstraZeneca AB, priority 2010, dated 2013)
Where two headings read alike, the source gives them in different places.

Target: T1, human cardiac ion channel proteins hKir3.1/Kir3.4 (Homo sapiens, UniProt P48544+P48549)
T1 construct: expressed in transfected cells
T1 sequence (P48549 1-501): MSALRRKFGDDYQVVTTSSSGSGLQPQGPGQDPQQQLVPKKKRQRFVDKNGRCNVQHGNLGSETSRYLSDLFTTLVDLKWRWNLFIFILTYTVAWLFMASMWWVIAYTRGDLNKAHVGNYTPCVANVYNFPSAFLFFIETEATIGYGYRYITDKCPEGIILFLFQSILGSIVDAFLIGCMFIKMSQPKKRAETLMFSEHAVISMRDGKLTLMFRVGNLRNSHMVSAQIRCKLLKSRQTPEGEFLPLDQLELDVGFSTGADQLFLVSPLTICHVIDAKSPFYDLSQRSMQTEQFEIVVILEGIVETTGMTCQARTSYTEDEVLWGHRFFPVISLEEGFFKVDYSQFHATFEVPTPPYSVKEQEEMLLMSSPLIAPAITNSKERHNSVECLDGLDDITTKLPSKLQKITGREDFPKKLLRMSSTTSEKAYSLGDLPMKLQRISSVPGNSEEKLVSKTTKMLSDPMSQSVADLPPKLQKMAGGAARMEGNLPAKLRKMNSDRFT
T1 sequence (P48544 1-419): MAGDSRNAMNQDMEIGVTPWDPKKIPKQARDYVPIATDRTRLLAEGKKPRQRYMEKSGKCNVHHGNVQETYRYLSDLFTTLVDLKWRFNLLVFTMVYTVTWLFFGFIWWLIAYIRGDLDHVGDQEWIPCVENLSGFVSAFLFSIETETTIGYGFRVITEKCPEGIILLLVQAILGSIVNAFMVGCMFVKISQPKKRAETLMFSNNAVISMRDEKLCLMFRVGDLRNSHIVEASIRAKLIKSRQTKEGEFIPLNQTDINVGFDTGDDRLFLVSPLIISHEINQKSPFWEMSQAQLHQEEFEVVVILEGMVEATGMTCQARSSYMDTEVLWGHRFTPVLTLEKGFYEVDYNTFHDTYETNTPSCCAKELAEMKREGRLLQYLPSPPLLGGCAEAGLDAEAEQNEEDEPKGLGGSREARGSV
Test: Atomic Absorption Screening (AAS) Rb efflux assay of hKir3.1/Kir3.4 block, carbachol/high K+ stimulated, 10-pt or 7-pt CR
Type: cell-based
Outline: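 CHO-K1 cells stably co-expressing human Kir3.1/Kir3.4 were Rb-loaded for 3 h at 37° C, preincubated with compound 5 min at RT, then stimulated 10 min with 10 μM carbachol plus 20 mM KCl (final). Supernatant Rb was measured by atomic absorption. Compounds ran at 0.003–67 μmol/L (10-pt) or 0.037–27 μmol/L (7-pt), threefold dilutions; IC50s are means of >4 or >3 replicates respectively.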

[1] = printed as IC50 >67 μM in the 10-pt CR assay or IC50 >27 μM in the 7-pt CR assay, assay format per compound not stated, read-out: IC50
[2] = 10-pt CR (0.003 to 67 μmol/L), AAS Rb efflux, CHO-K1 cells expressing hKir3.1/Kir3.4, mean of >4 replicates, read-out: IKACh IC50 10-pt CR, AAS
[3] = 7-pt CR (0.037 to 27 μmol/L), AAS Rb efflux, CHO-K1 cells expressing hKir3.1/Kir3.4, mean of >3 replicates, read-out: IKACh IC50 7-pt CR, AAS

Work on `CC(C)[C@H](CN1CCCC1)N(C)C(=O)c1cccc(C#N)c1` [3-Cyano-N-methyl-N-[(1R)-2-methyl-1-(pyrrolidin-1-ylmethyl)propyl]benzamide] yielded an IC50 [1] greater than 27 µM.
Compound `CC(C)[C@@H](CN1CC(F)C1)N(C)C(=O)c1ccc(C#N)cc1F` [(S)-4-Cyano-2-fluoro-N-(1-(3-fluoroazetidin-1-yl)-3-methylbutan-2-yl)-N-methylbenzamide] has an IC50 [1] greater than 27 µM.
Work on `Cc1ccc(C(=O)N(C)[C@H](CN2CCC(F)(F)C2)C(C)C)cc1C` [Example 21, (S)—N-(1-(3,3-Difluoropyrrolidin-1-yl)-3-methylbutan-2-yl)-N,3,4-trimethylbenzamide] yielded an IC50 [2] of 19 µM.
Compound `CC(C)[C@@H](CN1CC(C)(O)C1)N(C)C(=O)c1ccc(F)cc1` [(S)-4-Fluoro-N-(1-(3-hydroxy-3-methylazetidin-1-yl)-3-methylbutan-2-yl)-N-methylbenzamide] has an IC50 [1] greater than 27 µM.
With `CN(C(=O)c1ccc(F)c(F)c1)[C@H](CN1CC(O)C1)C1CC1` [Example 9.9, (S)-N-(1-Cyclopropyl-2-(3-hydroxyazetidin-1-yl)ethyl)-3,4-difluoro-N-methylbenzamide] the IC50 [2] was 11 µM.
With `CC(C)[C@@H](CN1CCCC1)N(C)C(=O)c1ccccc1OC(F)F` [Example 16.54, (S)-2-(Difluoromethoxy)-N-methyl-N-(3-methyl-1-(pyrrolidin-1-yl)butan-2-yl)benzamide] the IC50 [3] was 6 µM and the IC50 [2] was 9.1 µM.
`CC(C)[C@@H](CN1CC[C@H](O)C1)N(C)C(=O)c1cccc(OC(F)(F)F)c1` [Example 16.42, N-[(1S)-1-{[(3S)-3-Hydroxypyrrolidin-1-yl]methyl}-2-methylpropyl]-N-methyl-3-(tri-fluoromethoxy)benzamide] was tested, and the IC50 [3] was 3.9 µM.
`CCC[C@@H](CN1CCC(OC)CC1)N(C)C(=O)c1ccc(Cl)cc1` [Example 45, (S)-4-Chloro-N-(1-(4-methoxypiperidin-1-yl)pentan-2-yl)-N-methylbenzamide] was tested, and the IC50 [2] was 0.68 µM.
Compound `CC(C)[C@@H](CN1CC(C)(O)C1)N(C)C(=O)c1ccc(F)c(C(F)(F)F)c1` [Example 9.8, (S)-4-Fluoro-N-(1-(3-hydroxy-3-methylazetidin-1-yl)-3-methyl-butan-2-yl)-N-methyl-3-(trifluoromethyl)benzamide] has an IC50 [2] of 5.3 µM.
Work on `Cc1cc(C(=O)N(C)[C@H](CCN2CCCC2)C(C)C)ccc1F` [Example 13.4, (R)-4-Fluoro-N,3-dimethyl-N-(4-methyl-1-(pyrrolidin-1-yl)pentan-3-yl)benzamide] yielded an IC50 [2] of 19 µM.
For `CC(C)[C@@H](CN1CCCCC1)N(C)C(=O)c1ccc(Cl)cc1Cl` [Example 16.30, 2,4-Dichloro-N-methyl-N-[(1S)-2-methyl-1-(piperidin-1-ylmethyl)propyl]benzamide], the IC50 [3] was 1.7 µM.
Work on `CN(C(=O)c1ccc(C(F)(F)F)cc1)[C@H](CN1CC(O)C1)C1CCC1` [Example 39.8, (S)—N-(1-Cyclobutyl-2-(3-hydroxyazetidin-1-yl)ethyl)-N-methyl-4-(trifluoromethyl)benzamide] yielded an IC50 [2] of 0.23 µM.
Work on `CN(C(=O)c1ccc(F)c(F)c1)[C@H](CN1CCCC1)C1CC1` [Example 3.16, (S)-N-(1-Cyclopropyl-2-(pyrrolidin-1-yl)ethyl)-3,4-difluoro-N-methylbenzamide] yielded an IC50 [2] of 13 µM.
Work on `Cc1cc(C(=O)N(C)[C@H](CN2CC(O)(C3CC3)C2)C2CC2)ccc1F` [Example 9.1, (S)—N-(1-Cyclopropyl-2-(3-cyclopropyl-3-hydroxyazetidin-1-yl)ethyl)-4-fluoro-N,3-dimethylbenzamide] yielded an IC50 [2] of 2.6 µM.
Work on `CC(C)[C@@H](CN1CC[C@H](O)C1)N(C)C(=O)c1cccc(C#N)c1` [3-Cyano-N-[(1S)-1-{[(3S)-3-hydroxypyrrolidin-1-yl]methyl}-2-methylpropyl]-N-methylbenzamide] yielded an IC50 [1] greater than 27 µM.
`CC[C@@H](CN1CCCC1)N(C)C(=O)c1ccc(Br)cc1` [Example 17.1, (S)-4-Bromo-N-methyl-N-(1-(pyrrolidin-1-yl)butan-2-yl)benzamide] showed an IC50 [2] of 12 µM.
For `C[C@@H](CN1CC(O)C1)N(C)C(=O)c1ccc(Cl)cc1` [Example 40.1, (S)-4-Chloro-N-(1-(3-hydroxyazetidin-1-yl)propan-2-yl)-N-methylbenzamide], the IC50 [2] was 9.7 µM.
Compound `COc1cc(C(=O)N(C)[C@H](CN2CCCC(F)(F)C2)C(C)C)ccc1C` [Example 16.4, (S)—N-(1-(3,3-Difluoropiperidin-1-yl)-3-methylbutan-2-yl)-3-methoxy-N,4-dimethylbenzamide] has an IC50 [2] of 18 µM.
Compound `CCC[C@@H](CN1CC(O)C1)N(C)C(=O)c1ccc(C)c(C)c1` [Example 23, (S)—N-(1-(3-Hydroxyazetidin-1-yl)pentan-2-yl)-N,3,4-trimethylbenzamide] has an IC50 [2] of 0.44 µM.
With `CC[C@@H](CN1CC(O)C1)N(C)C(=O)c1ccc(F)c(C)c1` [Example 8.17, (S)-4-Fluoro-N-(1-(3-hydroxyazetidin-1-yl)butan-2-yl)-N,3-dimethylbenzamide] the IC50 [2] was 2 µM.
`Cc1cc(C(=O)N(C)[C@H](CN2CCC(O)CC2)C(C)C)ccc1F` [Example 24, (S)-4-Fluoro-N-(1-(4-hydroxypiperidin-1-yl)-3-methylbutan-2-yl)-N,3-dimethylbenzamide] was tested, and the IC50 [2] was 4 µM.
In the case of `CN(C(=O)c1ccc(F)cc1Cl)C(CN1CC(O)C1)C1CCCC1` (single isomer, unassigned) [32.6, isomer 1], the IC50 [2] is reported as 1.1 µM.
`CC[C@H](C)[C@@H](CN1CC(O)C1)N(C)C(=O)c1cc(Cl)ccc1OC` [Example 29.9, 5-Chloro-N-((2S,3S)-1-(3-hydroxyazetidin-1-yl)-3-methylpentan-2-yl)-2-methoxy-N-methylbenzamide] was tested, and the IC50 [2] was 16 µM.
`CCN(C(=O)c1ccc(Cl)cc1)[C@H](CN1CCCC1)C(C)C` [Example 15.3, (S)-4-Chloro-N-ethyl-N-(3-methyl-1-(pyrrolidin-1-yl)butan-2-yl)benzamide] was tested, and the IC50 [2] was 7.4 µM.
Compound `CCC[C@@H](CN1CCC1)N(C)C(=O)c1ccc(Br)cc1` [Example 1.3, (S)-N-(1-(Azetidin-1-yl)pentan-2-yl)-4-bromo-N-methylbenzamide] has an IC50 [2] of 3.1 µM.
Work on `CN(C(=O)c1ccc(F)c(C(F)(F)F)c1)[C@H](CN1CC(O)C1)C1CC1` [Example 7.5, (S)-N-(1-Cyclopropyl-2-(3-hydroxyazetidin-1-yl)ethyl)-4-fluoro-N-methyl-3-(trifluoromethyl)benzamide] yielded an IC50 [2] of 1.8 µM.
In the case of `CCCC[C@@H](CN1CC(O)C1)N(C)C(=O)c1ccc(F)c(Cl)c1` [Example 33.8, 3-Chloro-4-fluoro-N-[(2S)-1-(3-hydroxyazetidin-1-yl)hexan-2-yl]-N-methylbenzamide], the IC50 [2] is reported as 0.16 µM.
`CC(C)[C@@H](CN1CC(F)C1)N(C)C(=O)c1ccc(F)c(Cl)c1` [Example 1.8, (S)-3-Chloro-4-fluoro-N-(1-(3-fluoroazetidin-1-yl)-3-methylbutan-2-yl)-N-methylbenzamide] gave an IC50 [2] of 11 µM.
Compound `CC(C)[C@H](CN1CCCC1)N(C)C(=O)c1ccc(Cl)cc1F` [Example 16.59, (R)-4-Chloro-2-fluoro-N-methyl-N-(3-methyl-1-(pyrrolidin-1-yl)butan-2-yl)benzamide] has an IC50 [3] of 18 µM.
`CN(C(=O)c1ccc(F)cc1Cl)[C@H](CN1CC(O)C1)C1CCC1` [Example 39.1, (S)-2-chloro-N-(1-cyclobutyl-2-(3-hydroxyazetidin-1-yl)ethyl)-4-fluoro-N-methylbenzamide] gave an IC50 [2] of 1.1 µM.
Work on `Cc1cc(C(=O)N(C)[C@H](CN2CCCCC2)C(C)C)ccc1Cl` [Example 16.25, 4-Chloro-N,3-dimethyl-N-[(1S)-2-methyl-1-(piperidin-1-ylmethyl)propyl]benzamide] yielded an IC50 [3] of 2.8 µM.
`Cc1cc(C(=O)N(C)[C@H](CN2CCC2)C(C)C)ccc1F` [Example 1.10, (S)-N-(1-(Azetidin-1-yl)-3-methylbutan-2-yl)-4-fluoro-N,3-dimethylbenzamide] gave an IC50 [2] of 6.9 µM.
In the case of `Cc1cc(F)ccc1C(=O)N(C)[C@H](CN1CCCC1)C(C)(C)C` [(S)-N-(3,3-Dimethyl-1-(pyrrolidin-1-yl)butan-2-yl)-4-fluoro-N,2-dimethylbenzamide], the IC50 [1] is reported as greater than 27 µM.
Work on `COCCN(C(=O)c1ccc(Cl)cc1)[C@H](CN1CCCC1)C(C)C` [Example 15.4, (S)-4-Chloro-N-(2-methoxyethyl)-N-(3-methyl-1-(pyrrolidin-1-yl)butan-2-yl)benzamide] yielded an IC50 [2] of 5.7 µM.
